From patent publication US10537541B2, “Treatment of focal segmental glomerular sclerosis (FSGS) using therapeutically effective oral doses of 10-nitro-9(E)-octadec-9-enoic acid” (Complexa, Inc., priority 2015, dated 2020) come the findings set out here.

pIC50: −log10 of the molar value.

Data set [1] has as its system deoxycorticosterone acetate (DOCA)/salt-induced model of FSGS. The data set is described as follows: DOCA salt study: serum and urine analyses. In kind it is in vivo, mice (129/sv strain). The note with it: DOCA/salt mice; for reduction in albuminuria: 2.5 mg/kg p.o. QD. On the procedure:
Induction of model: Male mice (129/sv strain) were purchased from Taconic Labs. The animals were uninephrectomized (Unx) at 6 weeks of age by the vendor and shipped one week after surgery. At 2 weeks post Unx, a DOCA or placebo pellet (21-day release pellets, 50 mg/pellet, Innovative Research of America, Sarasota, Fla.) was implanted s.c. All mice were then placed on a semisynthetic diet which contained a moderate fat content and a low phytoestrogen/anti-oxidant level, which approximates a normal human diet (4). A second DOCA or placebo pellet was implanted three weeks later. […] One percent NaCl in tap water was given to each group except the sham control group. Body weight was measured weekly, and doses were readjusted based on the current body weight. Urine and blood samples were collected prior to treatment and at week 2 and 4 of treatment. Mice were terminated at week 4. Data is presented as the mean+SEM for the number of animals listed in each group. Serum and urine analyses: Blood samples were collected from the retro-orbital sinus and samples were separated to serum. Serum and urine creatinine (enzymatic assay), blood urea nitrogen (BUN), and serum cholesterol were measured using a Cobas 400 plus bioanalyzer (Roche Diagnostics, IN). Urine samples were collected for 24 h using metabolic cages. Urine albumin was measured by immunoassay Albuwell M (Exocell Inc., Philadelphia, Pa.). Immuno-ELISA according to manufacturer's instructions was used to measure urine nephrin (Exocell Inc., Philadelphia, Pa.) and MCP-1 (Thermal Scientific, Waltham, Mass.). Kim-1 was measured using the E-90KIM Mouse ELISA Kit (Immunology Consultants Laboratory, Portland, Oreg.). Statistical analyses for serum and urine data was performed using a two-tailed Student's t-test.

A further data set has as its system healthy male subjects. The data set is described as follows: Pharmacokinetic interaction study in healthy males: safety and tolerability. The data set is classed as in vivo, human. The following applies: healthy males. The procedure:
Safety and tolerability was evaluated throughout the study. The timing of discharge was determined by the Investigator or designee based on safety and tolerability assessment. On dosing days, subjects remained in the research unit for a minimum of 1 h after dosing prior to discharge. On Day 4, on the first day of 10-nitro-9(E)-octadec-9-enoic acid dosing, subjects remained in the unit for 4 to 6 h after dosing prior to discharge to assess safety and tolerability.
Safety and PK assessments were evaluated throughout the study. During the in-house portion of the study, urine was collected over the 24-h period on Day 2 and Day 12.
Safety was evaluated by physical examinations; adverse events (AEs); vital signs (blood pressure, heart rate, respiratory rate); clinical laboratory values (hematology, biochemistry, and urinalysis), specifically, serum Mg and CPK and electrocardiograms (ECGs).
Triplicate ECGs were obtained just prior to the start of dosing on Day 1 and single ECGs were obtained at all other time points. The average of the 3 ECG interval measurements at the pre-dose time point was considered as baseline. All 12-Lead ECGs were obtained after the subject has rested in a fully supine position for at least 10 minutes. There were no clinically significant abnormalities reported on any electrocardiogram (ECG) parameter. There were no QT/QTcF interval prolongations observed during the study.

The subject of a further data set is obese male subjects. Kind of data set: Multiple ascending dose study in obese males: serum biomarkers (leptin, MCP-1, IL-6, triglycerides, cholesterol). The data set is classed as in vivo, human. The source says:
Biomarker characterization included the following laboratory parameters: serum leptin, FBG, total cholesterol, HDL and LDL, triglycerides, HR, PR, QRS interval and T-wave morphology measured on ECGs extracted from cardiac Holter monitoring, measurements of serum RBP4, CRP, PAI-1, measurements of serum cytokines: IL-6, TNFα, MCP-1, measurements of the following biomarkers in whole blood by quantitative reverse transcriptase polymerase chain reaction (qRT-PCR) including: HO-1, NQ01, GCLM, HSP70 (HSP1A HSP1B, HSPA6), HSP22 (HSPB8) and HPS40 (DNAJA4), urine RBP4, MCP-1 and KIM-1, urinary exosomes by qRT-PCR including: HO-1, NQ01, GCLM, HSP70 (HSP1A HSP1B, HSPA6), HSP22 (HSPB8) and HPS40 (DNAJA4), gene and protein expression analyses by DNAseq, RNAseq, and western blots in PBMCs and ratio of EETs to DHETs in serum and urine.
This was a single-center, randomized, double-blind, placebo-controlled study of sequential multiple ascending doses of oral CXA-10 in obese male subjects. Eligible subjects included obese males age 19 to 57 years and BMI 27.0 to 39.5 kg/m^2. CXA-10 and placebo were provided as solutions in hard shell capsules. Three (3) cohorts of subjects were dosed once daily with CXA-10 for 14 days. The doses administered in this study were 25, 150 and 450 mg. Subjects enrolled in the highest dose level (450 mg) were administered 600 mg on day 1 then 450 mg for 13 days. This cohort (cohort 3) was given the option to receive an additional 450 mg dose on day 15 with a high fat (50%) breakfast.
Full PK profiles were obtained on Days 1 and 14. For subjects in cohort 3 who participate in the additional procedures on Day 15, full PK profiles were obtained on Days 1, 14, and 15. An abbreviated PK profile could also be obtained for the highest dose cohort only on one additional day. The actual day of PK sampling coincided with the additional day of Holter monitoring for the highest dose cohort. Subjects returned on Day 21 and Day 28 for PK, safety, and biomarker assessments.

A further data set concerns the target CYP450 3A4 (Homo sapiens, UniProt P08684). Kind of data set: In vitro CYP450 evaluation. The data set is classed as in vitro ADME.
[2] abbreviates: low dose 2.5 mg/kg p.o. QD, 4 weeks.
The mark [3] stands for this setting: lower dose 2.5 mg/kg p.o. QD, 4 weeks.

CYP450 3A4, sequence (P08684 whole entry): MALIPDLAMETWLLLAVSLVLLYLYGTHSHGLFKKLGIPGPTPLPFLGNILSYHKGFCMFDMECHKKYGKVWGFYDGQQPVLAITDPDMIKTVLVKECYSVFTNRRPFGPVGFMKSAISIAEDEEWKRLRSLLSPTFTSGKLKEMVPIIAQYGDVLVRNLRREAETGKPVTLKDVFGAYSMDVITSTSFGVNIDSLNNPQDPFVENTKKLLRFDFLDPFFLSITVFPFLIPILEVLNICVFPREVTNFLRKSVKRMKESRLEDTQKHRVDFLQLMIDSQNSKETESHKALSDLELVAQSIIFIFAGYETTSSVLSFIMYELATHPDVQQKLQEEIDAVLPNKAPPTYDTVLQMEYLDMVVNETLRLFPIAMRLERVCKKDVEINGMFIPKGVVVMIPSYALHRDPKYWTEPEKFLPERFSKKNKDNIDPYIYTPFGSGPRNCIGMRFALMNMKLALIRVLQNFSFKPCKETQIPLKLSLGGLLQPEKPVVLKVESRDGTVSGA

In the case of `CCCCCCCC/C(=C\CCCCCCCC(=O)O)[N+](=O)[O-]` [CXA-10, 10-nitro-9(E)-octadec-9-enoic acid], in data set [1] (week 2 post-dosing), the reduction in albuminuria is 49%. Further, the reduction in albuminuria in data set [1] (week 4 post-dosing) is 34%. The albuminuria entry in data set [1] (high dose 12.5 mg/kg p.o. QD) is “had an effect initially but it was not sustained”. The “urinary MCP-1 excretion” value in data set [1] (high dose 12.5 mg/kg p.o. QD, 4 weeks) is listed as “had no effect”. For the same compound, in data set [1] (setting [2]), the plasma cholesterol result is reported as “reduced” and the “urinary MCP-1 excretion” value was “significantly reduced”. Besides, in data set [1] (setting [3]), the albumin excretion result was “markedly reduced” and the urinary nephrin levels entry is given as “markedly reduced”. Further, in the data set on healthy male subjects (150 mg daily with food), the “GI AEs related to 10-nitro-9(E)-octadec-9-enoic acid” value is on record as “not observed”. In addition, in the data set with healthy male subjects (150 mg daily), the serum creatinine levels result was “no changes”. Besides, the “24-hour urine creatinine excretion measurements” value in the data set with healthy male subjects (150 mg daily, Day 2 versus Day 12) is reported as “nor any relevant changes”. In the data set on obese male subjects (150 mg), the “Cholesterol concentrations, change from baseline” value is listed as “trend to decrease from baseline” and the “MCP-1 mean change from baseline compared to placebo” value is reported as “significantly different compared to placebo”. The Triglycerides LS Mean Difference (CI) with obese male subjects (150 mg versus placebo, Day 8) is -45.4 mg/dL. For the same compound, the “MCP-1 LS Mean Difference (CI)” value with obese male subjects (150 mg versus placebo, Day 14 (0-10 hr)) is listed as −228.5 (−387.2, −69.77) pg/mL. This compound yielded a Triglycerides LS Mean Difference (CI) in the data set on obese male subjects (150 mg versus placebo, Day 15) of -59.6 mg/dL. Besides, the “decrease of leptin concentrations from baseline” value in the data set with obese male subjects (150 mg, day 14, placebo increased 35%) came to 21.5%. The “IL-6 concentrations, change from baseline” value in the data set on obese male subjects (150 mg, days 7 and 14) was “trend to decrease from baseline”. Besides, the “Leptin % change from baseline” value with obese male subjects (Cohort 2 150 mg (n = 10), Day 14) is −21.5%. For the same compound, the “Leptin LS Mean Difference (CI) versus placebo” value with obese male subjects (Cohort 2 150 mg versus placebo, Day 14) was −56.5 (−140.5, 27.5) pg/mL. For the same compound, the pIC50 (commonly −log10 of the IC50, conventionally taken in molar units) against CYP450 3A4 was less than 4.48.
